Test results published in ChEMBL document CHEMBL1201862, “PubChem BioAssay data set” (2004).
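Exposure lasted 48 hours, with cells grown in 96-well plates and compounds tested at five concentrations. GI50 is the concentration that inhibits growth by half.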 Activity calls are given as the source filed them. No stated cut-off is given here; in the data, active = GI50 up to about 1.1 µM and inactive = higher.

Legend:
Test in all cases: NCI-60 cell line screen, 48 h
Hs-578T = system: Hs-578T
SK-MEL-5 = system: SK-MEL-5
BT-549 = system: BT-549
U-251 = system: U-251
COLO 205 = system: COLO 205
CCRF-CEM = system: CCRF-CEM
SNB-75 = system: SNB-75
A498 = system: A498
UACC-62 = system: UACC-62
MDA-MB-435 = system: MDA-MB-435
OVCAR-5 = system: OVCAR-5
RXF 393 = system: RXF 393
TK-10 = system: TK-10
RPMI-8226 = system: RPMI-8226
LOX IMVI = system: LOX IMVI
786-0 = system: 786-0
UO-31 = system: UO-31
OVCAR-8 = system: OVCAR-8
OVCAR-4 = system: OVCAR-4
HCC 2998 = system: HCC 2998
NCI-H226 = system: NCI-H226
SNB-19 = system: SNB-19
SW-620 = system: SW-620
SK-MEL-28 = system: SK-MEL-28
HL-60 = system: HL-60
UACC-257 = system: UACC-257
NCI-H460 = system: NCI-H460
HOP-92 = system: HOP-92
HT-29 = system: HT-29
HCT-15 = system: HCT-15
SN12C = system: SN12C
PC-3 = system: PC-3
ACHN = system: ACHN
SF-268 = system: SF-268
MDA-MB-231 = system: MDA-MB-231
HCT-116 = system: HCT-116
CAKI-1 = system: CAKI-1
MOLT-4 = system: MOLT-4
SK-MEL-2 = system: SK-MEL-2
IGROV-1 = system: IGROV-1
K562 = system: K562
NCI/ADR-RES = system: NCI/ADR-RES
NCI-H522 = system: NCI-H522
M14 = system: M14
EKVX = system: EKVX
KM12 = system: KM12
T47D = system: T47D
SR = system: SR
MCF7 = system: MCF7
Malme-3M = system: Malme-3M
NCI-H23 = system: NCI-H23
MDA-N = system: MDA-N
A549 = system: A549
OVCAR-3 = system: OVCAR-3
SF-295 = system: SF-295
HOP-62 = system: HOP-62
SF-539 = system: SF-539
SK-OV-3 = system: SK-OV-3
DU-145 = system: DU-145

Compound: C/C(=N\N=C(N)N)c1c(C(=O)OCCCCCCOC(=O)c2nc3sccn3c2/C(C)=N/N=C(N)N)nc2sccn12
- GI50 (Hs-578T): > 100 µM (inactive)
- GI50 (SK-MEL-5): 99.1 µM (inactive)
- GI50 (BT-549): > 100 µM (inactive)
- GI50 (U-251): 37.7 µM (inactive)
- GI50 (COLO 205): > 100 µM (inactive)
- GI50 (CCRF-CEM): 20.5 µM (inactive)
- GI50 (SNB-75): 44.7 µM (inactive)
- GI50 (A498): > 100 µM (inactive)
- GI50 (UACC-62): > 100 µM (inactive)
- GI50 (MDA-MB-435): > 100 µM (inactive)
- GI50 (OVCAR-5): > 100 µM (inactive)
- GI50 (RXF 393): > 100 µM (inactive)
- GI50 (TK-10): 22.8 µM (inactive)
- GI50 (RPMI-8226): 85.3 µM (inactive)
- GI50 (LOX IMVI): 98.2 µM (inactive)
- GI50 (786-0): 41.9 µM (inactive)
- GI50 (UO-31): 69.5 µM (inactive)
- GI50 (OVCAR-8): 42.9 µM (inactive)
- GI50 (OVCAR-4): > 100 µM (inactive)
- GI50 (HCC 2998): > 100 µM (inactive)
- GI50 (NCI-H226): > 100 µM (inactive)
- GI50 (SNB-19): 63.8 µM (inactive)
- GI50 (SW-620): > 100 µM (inactive)
- GI50 (SK-MEL-28): > 100 µM (inactive)
- GI50 (HL-60): 32.1 µM (inactive)
- GI50 (UACC-257): > 100 µM (inactive)
- GI50 (NCI-H460): > 100 µM (inactive)
- GI50 (HOP-92): > 100 µM (inactive)
- GI50 (HT-29): > 100 µM (inactive)
- GI50 (HCT-15): > 100 µM
- GI50 (SN12C): > 100 µM (inactive)
- GI50 (PC-3): > 100 µM (inactive)
- GI50 (ACHN): > 100 µM (inactive)
- GI50 (SF-268): 49.1 µM (inactive)
- GI50 (MDA-MB-231): > 100 µM (inactive)
- GI50 (HCT-116): > 100 µM (inactive)
- GI50 (CAKI-1): > 100 µM (inactive)
- GI50 (MOLT-4): 32.2 µM (inactive)
- GI50 (SK-MEL-2): > 100 µM (inactive)
- GI50 (IGROV-1): > 100 µM (inactive)
- GI50 (K562): 19.5 µM (inactive)
- GI50 (NCI/ADR-RES): > 100 µM (inactive)
- GI50 (NCI-H522): > 100 µM (inactive)
- GI50 (M14): > 100 µM (inactive)
- GI50 (EKVX): > 100 µM (inactive)
- GI50 (KM12): > 100 µM (inactive)
- GI50 (T47D): 16.2 µM (inactive)
- GI50 (SR): 18.3 µM (inactive)
- GI50 (MCF7): 47.4 µM (inactive)
- GI50 (Malme-3M): 43.4 µM (inactive)
- GI50 (NCI-H23): 46.1 µM (inactive)
- GI50 (MDA-N): > 100 µM (inactive)
- GI50 (A549): > 100 µM (inactive)

Compound: O=C1NC(=O)C2(CCC(O)C2)c2cc[n+]([O-])cc21 (centres undefined)
- GI50 (Hs-578T): > 100 µM (inactive)
- GI50 (BT-549): > 100 µM (inactive)
- GI50 (U-251): > 100 µM (inactive)
- GI50 (COLO 205): > 100 µM (inactive)
- GI50 (CCRF-CEM): > 100 µM (inactive)
- GI50 (SNB-75): 60.1 µM (inactive)
- GI50 (A498): > 100 µM (inactive)
- GI50 (UACC-62): > 100 µM (inactive)
- GI50 (MDA-MB-435): > 100 µM (inactive)
- GI50 (OVCAR-3): > 100 µM (inactive)
- GI50 (OVCAR-5): > 100 µM (inactive)
- GI50 (RXF 393): > 100 µM (inactive)
- GI50 (TK-10): > 100 µM (inactive)
- GI50 (RPMI-8226): > 100 µM (inactive)
- GI50 (LOX IMVI): > 100 µM (inactive)
- GI50 (786-0): > 100 µM (inactive)
- GI50 (SF-295): > 100 µM (inactive)
- GI50 (UO-31): > 100 µM (inactive)
- GI50 (OVCAR-8): > 100 µM (inactive)
- GI50 (OVCAR-4): > 100 µM (inactive)
- GI50 (HCC 2998): > 100 µM (inactive)
- GI50 (NCI-H226): > 100 µM (inactive)
- GI50 (HOP-62): > 100 µM (inactive)
- GI50 (SNB-19): > 100 µM (inactive)
- GI50 (SF-539): > 100 µM (inactive)
- GI50 (SW-620): > 100 µM (inactive)
- GI50 (SK-MEL-28): > 100 µM (inactive)
- GI50 (UACC-257): > 100 µM (inactive)
- GI50 (NCI-H460): > 100 µM (inactive)
- GI50 (HOP-92): > 100 µM (inactive)
- GI50 (HT-29): > 100 µM (inactive)
- GI50 (HCT-15): > 100 µM
- GI50 (SN12C): > 100 µM (inactive)
- GI50 (PC-3): > 100 µM (inactive)
- GI50 (ACHN): > 100 µM (inactive)
- GI50 (SF-268): > 100 µM (inactive)
- GI50 (MDA-MB-231): > 100 µM (inactive)
- GI50 (SK-OV-3): > 100 µM (inactive)
- GI50 (HCT-116): > 100 µM (inactive)
- GI50 (CAKI-1): > 100 µM (inactive)
- GI50 (MOLT-4): > 100 µM (inactive)
- GI50 (SK-MEL-2): > 100 µM (inactive)
- GI50 (IGROV-1): > 100 µM (inactive)
- GI50 (K562): > 100 µM (inactive)
- GI50 (NCI-H522): > 100 µM (inactive)
- GI50 (M14): > 100 µM (inactive)
- GI50 (EKVX): 71.8 µM (inactive)
- GI50 (KM12): > 100 µM (inactive)
- GI50 (T47D): > 100 µM (inactive)
- GI50 (DU-145): > 100 µM (inactive)
- GI50 (SR): > 100 µM (inactive)
- GI50 (MCF7): > 100 µM (inactive)
- GI50 (Malme-3M): > 100 µM (inactive)
- GI50 (NCI-H23): > 100 µM (inactive)
- GI50 (MDA-N): > 100 µM (inactive)
- GI50 (A549): > 100 µM (inactive)
